Reference: patent publication US11739098B2 (BRISTOL-MYERS SQUIBB COMPANY, priority 2017, dated 2023)
pIC50: −log10 of the molar value.

Assays:
Type in all cases: cell-based
human TLR7 = target: T1, human TLR7 (Homo sapiens, UniProt Q9NYK1); assay: TLR7 inhibition reporter assay (HEK-Blue cells, SEAP reporter, gardiquimod stimulation); settings: HEK-Blue cells overexpressing human TLR7, SEAP reporter, gardiquimod 7.5 μM
T1 construct: host or cells: HEK-Blue cells (HEK293-derived reporter line)
T1 sequence (Q9NYK1 27-1049): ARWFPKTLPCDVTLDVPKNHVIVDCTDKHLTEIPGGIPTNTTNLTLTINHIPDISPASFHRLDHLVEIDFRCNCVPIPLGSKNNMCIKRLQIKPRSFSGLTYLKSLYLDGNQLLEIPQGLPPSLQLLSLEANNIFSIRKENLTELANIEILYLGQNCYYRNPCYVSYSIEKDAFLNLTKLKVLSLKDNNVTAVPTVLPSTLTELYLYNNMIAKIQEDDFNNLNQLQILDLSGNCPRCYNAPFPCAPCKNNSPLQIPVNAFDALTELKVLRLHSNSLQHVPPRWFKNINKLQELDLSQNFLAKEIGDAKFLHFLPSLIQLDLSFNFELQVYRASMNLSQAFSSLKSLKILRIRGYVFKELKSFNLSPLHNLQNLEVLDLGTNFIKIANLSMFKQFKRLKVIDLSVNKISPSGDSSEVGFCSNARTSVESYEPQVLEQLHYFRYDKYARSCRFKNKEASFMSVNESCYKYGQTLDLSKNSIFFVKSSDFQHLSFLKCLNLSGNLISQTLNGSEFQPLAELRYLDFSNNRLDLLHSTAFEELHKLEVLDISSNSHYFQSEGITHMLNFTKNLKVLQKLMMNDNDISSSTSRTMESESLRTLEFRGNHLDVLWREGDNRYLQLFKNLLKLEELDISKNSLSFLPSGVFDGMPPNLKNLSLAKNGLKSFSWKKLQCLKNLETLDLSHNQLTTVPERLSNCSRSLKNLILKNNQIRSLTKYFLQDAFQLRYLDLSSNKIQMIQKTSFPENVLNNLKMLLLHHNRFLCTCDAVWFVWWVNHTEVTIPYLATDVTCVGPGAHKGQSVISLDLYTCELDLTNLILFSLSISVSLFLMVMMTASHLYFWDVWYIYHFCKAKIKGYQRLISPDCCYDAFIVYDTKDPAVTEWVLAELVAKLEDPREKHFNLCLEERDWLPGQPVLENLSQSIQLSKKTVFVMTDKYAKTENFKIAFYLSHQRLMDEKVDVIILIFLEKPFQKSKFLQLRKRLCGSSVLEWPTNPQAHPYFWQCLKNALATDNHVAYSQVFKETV
Summary of the method: (§1)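 After 22 h at 37 °C, SEAP secretion was measured from human TLR7-, TLR8- or TLR9-expressing HEK-Blue reporter cells given compound (0.05 nM–50 μM) 30 min before agonist: 7.5 μM gardiquimod, 15.9 μM R848 or 5 nM ODN2006 respectively. Percent inhibition referenced to agonist-plus-DMSO and known-inhibitor wells.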

human TLR8 = target: T2, human TLR8 (Homo sapiens, UniProt Q9NR97); assay: TLR8 inhibition reporter assay (HEK-Blue cells, SEAP reporter, R848 stimulation); settings: HEK-Blue cells overexpressing human TLR8, SEAP reporter, R848 15.9 μM
T2 construct: host or cells: HEK-Blue cells (HEK293-derived reporter line)
T2 sequence (Q9NR97 27-1041): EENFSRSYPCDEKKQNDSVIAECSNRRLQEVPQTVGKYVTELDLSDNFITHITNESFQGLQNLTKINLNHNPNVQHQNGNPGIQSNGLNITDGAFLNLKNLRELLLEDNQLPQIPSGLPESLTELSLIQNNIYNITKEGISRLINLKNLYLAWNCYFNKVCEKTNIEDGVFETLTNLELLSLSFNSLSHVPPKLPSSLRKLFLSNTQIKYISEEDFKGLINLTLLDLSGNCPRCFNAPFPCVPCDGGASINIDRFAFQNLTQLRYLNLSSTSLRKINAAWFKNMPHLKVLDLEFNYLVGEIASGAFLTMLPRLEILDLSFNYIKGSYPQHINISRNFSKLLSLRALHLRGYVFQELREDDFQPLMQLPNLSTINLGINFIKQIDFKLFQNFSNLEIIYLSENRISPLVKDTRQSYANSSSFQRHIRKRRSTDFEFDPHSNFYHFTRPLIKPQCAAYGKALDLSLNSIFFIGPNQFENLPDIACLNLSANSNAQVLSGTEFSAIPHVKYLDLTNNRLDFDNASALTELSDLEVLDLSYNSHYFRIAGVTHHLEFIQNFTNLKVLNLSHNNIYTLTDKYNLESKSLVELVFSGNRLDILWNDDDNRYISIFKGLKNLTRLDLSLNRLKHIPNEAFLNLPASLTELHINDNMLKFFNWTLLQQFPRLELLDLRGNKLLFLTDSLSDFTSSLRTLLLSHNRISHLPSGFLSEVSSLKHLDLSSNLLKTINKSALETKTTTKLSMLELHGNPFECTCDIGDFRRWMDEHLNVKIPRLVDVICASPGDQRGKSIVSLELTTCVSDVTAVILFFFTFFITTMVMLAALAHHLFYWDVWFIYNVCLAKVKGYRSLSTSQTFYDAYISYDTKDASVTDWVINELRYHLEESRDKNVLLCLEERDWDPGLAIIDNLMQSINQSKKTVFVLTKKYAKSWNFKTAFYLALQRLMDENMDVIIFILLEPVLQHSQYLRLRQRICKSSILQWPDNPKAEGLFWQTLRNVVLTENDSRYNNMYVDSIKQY
Summary of the method: as §1

human TLR9 = target: T3, human TLR9 (Homo sapiens, UniProt Q9NR96); assay: TLR9 inhibition reporter assay (HEK-Blue cells, SEAP reporter, ODN2006 stimulation); settings: HEK-Blue cells overexpressing human TLR9, SEAP reporter, ODN2006 5 nM
T3 construct: host or cells: HEK-Blue cells (HEK293-derived reporter line)
T3 sequence (Q9NR96 26-1032): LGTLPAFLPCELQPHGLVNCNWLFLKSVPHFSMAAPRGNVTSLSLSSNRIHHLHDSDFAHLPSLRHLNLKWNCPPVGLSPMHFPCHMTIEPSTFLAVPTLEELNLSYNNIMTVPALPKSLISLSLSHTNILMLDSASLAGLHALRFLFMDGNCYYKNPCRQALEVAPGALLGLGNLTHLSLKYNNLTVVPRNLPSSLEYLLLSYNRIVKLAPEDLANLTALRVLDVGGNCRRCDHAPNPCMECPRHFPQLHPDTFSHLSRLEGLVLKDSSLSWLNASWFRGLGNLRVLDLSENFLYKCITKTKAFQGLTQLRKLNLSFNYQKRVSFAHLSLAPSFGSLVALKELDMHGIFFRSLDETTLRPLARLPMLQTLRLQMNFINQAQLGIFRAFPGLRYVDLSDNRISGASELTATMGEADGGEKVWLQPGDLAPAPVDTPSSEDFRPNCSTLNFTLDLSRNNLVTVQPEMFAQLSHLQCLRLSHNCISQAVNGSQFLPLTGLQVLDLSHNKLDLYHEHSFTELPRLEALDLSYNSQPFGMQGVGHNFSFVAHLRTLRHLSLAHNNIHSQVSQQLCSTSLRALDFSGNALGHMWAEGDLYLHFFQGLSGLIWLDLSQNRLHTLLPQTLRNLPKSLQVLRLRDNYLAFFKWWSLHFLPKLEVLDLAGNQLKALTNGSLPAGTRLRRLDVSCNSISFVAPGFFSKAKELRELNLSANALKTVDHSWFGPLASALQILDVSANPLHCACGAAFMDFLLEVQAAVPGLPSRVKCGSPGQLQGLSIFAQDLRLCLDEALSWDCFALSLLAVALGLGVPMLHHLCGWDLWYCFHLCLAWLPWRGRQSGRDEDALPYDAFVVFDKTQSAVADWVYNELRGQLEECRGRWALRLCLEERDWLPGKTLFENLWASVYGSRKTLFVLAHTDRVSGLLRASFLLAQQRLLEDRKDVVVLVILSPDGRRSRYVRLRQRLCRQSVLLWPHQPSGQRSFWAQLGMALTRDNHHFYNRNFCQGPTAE
Summary of the method: as §1

Compound | pIC50 (human TLR7) | pIC50 (human TLR8) | pIC50 (human TLR9)
COc1c(C)c(-c2[nH]c3ccc(C4CCN(C(=O)CN(C)C)CC4)cc3c2C(C)C)nn2ncnc12 [Example 451, 2-(dimethylamino)-1-(4-(3-isopropyl-2-(8-methoxy-7-methyl-[1,2,4]triazolo[1,5-b]pyridazin-6-yl)-1H-indol-5-yl)piperidin-1-yl)ethan-1-one] | > 7.00 | > 7.00 | 4.30 to 6.00
CCc1c(-c2ccnc3[nH]ccc23)[nH]c2ccc(C3CCNCC3)cc12 [Example 236, 4-(3-ethyl-5-(piperidin-4-yl)-1H-indol-2-yl)-1H-pyrrolo[2,3-b]pyridine] | > 7.00 | > 7.00 | 6.00 to 7.00
Cc1cc(-c2[nH]c3ccc(C4CCN(S(=O)(=O)CCO)CC4)cc3c2C(C)C)cn2nnnc12 [Example 616, 2-((4-(3-isopropyl-2-(8-methyltetrazolo[1,5-a]pyridin-6-yl)-1H-indol-5-yl)piperidin-1-yl)sulfonyl)ethan-1-ol] | > 7.00 | 6.00 to 7.00 | < 4.30
Cc1cc(-c2[nH]c3ccc(C4CCN(C(=O)CN5CCC(F)CC5)CC4)cc3c2C(C)C)cn2nnnc12 [Example 474, 2-(4-fluoropiperidin-1-yl)-1-(4-(3-isopropyl-2-(8-methyltetrazolo[1,5-a]pyridin-6-yl)-1H-indol-5-yl)piperidin-1-yl) ethan-1-one] | > 7.00 | > 7.00 | 4.30 to 6.00
COc1cc(-c2[nH]c3ccc(C4CCN(C(=O)CN(C)C)CC4)cc3c2C(C)C)cc2nccn12 [Example 501, 2-(dimethylamino)-1-(4-(3-isopropyl-2-(5-methoxyimidazo[1,2-a]pyridin-7-yl)-1H-indol-5-yl)piperidin-1-yl)ethan-1-one] | 6.00 to 7.00 | 6.00 to 7.00 | 6.00 to 7.00
COc1nc(-c2[nH]c3ccc(C4CCNCC4)cc3c2C(C)C)cn2ncnc12 [Example 47, 6-(3-isopropyl-5-(piperidin-4-yl)-1H-indol-2-yl)-8-methoxy-[1,2,4]triazolo[1,5-a]pyrazine] | 6.00 to 7.00 | < 5.51 | 4.30 to 6.00
CNCCN1CCC(c2ccc3[nH]c(-c4ccnc5[nH]ncc45)c(C(C)C)c3c2)C(F)C1 (stereo not drawn) [Example 675, 2-(3-fluoro-4-(3-isopropyl-2-(1H-pyrazolo[3,4-b]pyridin-4-yl)-1H-indol-5-yl)piperidin-1-yl)-N-methylethan-1-amine] | > 7.00 | > 7.00 | 6.00 to 7.00
CNC(=O)CN1CCC(c2ccc3[nH]c(-c4cc(C)c5nn(C)cc5c4)c(C(C)C)c3c2)CC1 [Example 378, 2-(4-(2-(2,7-dimethyl-2H-indazol-5-yl)-3-isopropyl-1H-indol-5-yl)piperidin-1-yl)-N-methylacetamide] | > 7.00 | 6.00 to 7.00 | 4.30 to 6.00
Cc1cc(-c2[nH]c3ccc(C4CCN(C5COC5)CC4)cc3c2C(C)C)c(C)n2nnnc12 [Example 740, 6-(3-isopropyl-5-(1-(oxetan-3-yl)piperidin-4-yl)-1H-indol-2-yl)-5,8-dimethyltetrazolo[1,5-a]pyridine] | 6.00 to 7.00 | > 7.00 | 4.30 to 6.00
Cc1c(-c2ccnc3[nH]cc(C)c23)[nH]c2ccc(C3CCNCC3)cc12 [Example 4, 3-methyl-4-(3-methyl-5-(piperidin-4-yl)-1H-indol-2-yl)-1H-pyrrolo[2,3-b]pyridine] | 6.00 to 7.00 | 6.00 to 7.00 | 6.00 to 7.00
Cc1cc(-c2[nH]c3ccc(C4CCN(CC(=O)N(C)C)CC4)cc3c2C(C)C)cc2ccnn12 [Example 442, 2-(4-(3-isopropyl-2-(7-methylpyrazolo[1,5-a]pyridin-5-yl)-1H-indol-5-yl)piperidin-1-yl)-N,N-dimethylacetamide] | > 7.00 | > 7.00 | 4.30 to 6.00
CNCC(=O)N1CCC(c2ccc3[nH]c(-c4cc(F)c5nccn5c4)c(C(C)C)c3c2)CC1 [Example 547, 1-(4-(2-(8-fluoroimidazo[1,2-a]pyridin-6-yl)-3-isopropyl-1H-indol-5-yl)piperidin-1-yl)-2-(methylamino)ethan-1-one] | > 7.00 | 6.00 to 7.00 | 6.00 to 7.00
CC(C)c1c(-c2ccn3cnnc3c2)[nH]c2ccc(C3CCN(C4COC4)CC3)cc12 [Example 736, 7-(3-isopropyl-5-(1-(oxetan-3-yl)piperidin-4-yl)-1H-indol-2-yl)-[1,2,4]triazolo[4,3-a]pyridine] | > 7.00 | 6.00 to 7.00 | 4.30 to 6.00
Cc1c[nH]c2nccc(-c3[nH]c4ccc(C5CCNCC5)cc4c3C(C)C)c12 [Example 215, 4-(3-isopropyl-5-(piperidin-4-yl)-1H-indol-2-yl)-3-methyl-1H-pyrrolo[2,3-b]pyridine] | 6.00 to 7.00 | 6.00 to 7.00 | 4.30 to 6.00
CC(C)c1c(-c2ccn3cnnc3c2)[nH]c2ccc(C3CCNCC3)cc12 [Example 83, 7-(3-isopropyl-5-(piperidin-4-yl)-1H-indol-2-yl)-[1,2,4]triazolo[4,3-a]pyridine] | > 7.00 | 6.00 to 7.00 | 6.00 to 7.00
